Values after ≈ are worked out from the molar mass of the structure shown. Active and inactive are the calls of the source. No cut-off for these calls is given here.
Assays:
CDK7/Cyclin H/MNAT1 = CDK7/Cyclin H/MNAT1 (Homo sapiens, UniProt P50613); assay: Inhibition of CDK7/Cyclin H/MAT1 (unknown origin) by ADP-Glo assay; type: protein-complex assay
[1] = molecular target: Cyclin-dependent kinase 9 (Homo sapiens) (UniProt P50750); assay: Inhibition of CDK9 in human MV4-11 cells assessed as reduction in c-Myc mRNA expression at 0.1 to 2 uM incubated for 12 hrs by qPCR analysis; type: cell-based; settings: dose 0.1-2 µM
[2] = molecular target: Cyclin-dependent kinase 12 (Homo sapiens) (UniProt Q9NYV4); assay: Inhibition of wild type partial length human CDK12 (697 to 1077 residues) to expressed in mammalian expression system at 1 uM by KINOMEscan analysis
[3] = molecular target: CDK2/Cyclin A2 (Homo sapiens) (UniProt P24941+P20248); assay: Inhibition of CDK2/CyclinA2 (unknown origin) at 100 nM by ADP-Glo assay relative to control; type: protein-complex assay
[4] = molecular target: Cyclin-dependent kinase 9 (Homo sapiens) (UniProt P50750); assay: Inhibition of CDK9 in human MV4-11 cells assessed as reduction in Mcl-1 mRNA expression at 0.1 to 2 uM incubated for 12 hrs by qPCR analysis; type: cell-based; settings: dose 0.1-2 µM
MV4-11 [5] = assay: Induction of apoptosis in human MV4-11 cells assessed as necrotic cells at 2 uM incubated for 24 hrs by AnnexinV-FITC/PI staining based flow cytometry (reference value: 0%); type: functional
CDK6/cyclin D1 = CDK6/cyclin D1 (Homo sapiens, UniProt Q00534); assay: Inhibition of CDK6/CyclinD1 (unknown origin) by ADP-Glo assay; type: protein-complex assay
MV4-11 [6] = assay: Induction of cell cycle arrest in human MV4-11 cells assessed as accumulation of cells at G0/G1 phase at 0.1 uM incubated fo 36 hrs by propidium iodide staining based flow cytometry (reference value: 64%); type: functional
MV4-11 [7] = assay: Induction of cell cycle arrest in human MV4-11 cells assessed as accumulation of cells at G0/G1 phase at 0.4 uM incubated fo 36 hrs by propidium iodide staining based flow cytometry (reference value: 64%); type: functional
MV4-11 [8] = assay: Induction of apoptosis in human MV4-11 cells assessed as necrotic cells at 1 uM incubated for 24 hrs by AnnexinV-FITC/PI staining based flow cytometry (reference value: 0%); type: functional
[9] = molecular target: Rho-associated protein kinase 2 (Homo sapiens) (UniProt O75116); assay: Inhibition of wild type partial length human ROCK2 (1 to 431 residues) expressed in mammalian expression system at 1 uM by KINOMEscan analysis
[10] = molecular target: Calcium-dependent protein kinase 1 (Plasmodium falciparum) (UniProt P62344); assay: Inhibition of wild type full length Plasmodium falciparum PFCDPK1 (1 to 524 residues) expressed in mammalian expression system at 1 uM by KINOMEscan analysis
MCF7 = assay: Antiproliferative activity against human MCF7 cells assessed as reduction in cell viability measured after 72 hrs; type: functional, cell-based; settings: MCF7, 72 h
CDK2/Cyclin A2 = CDK2/Cyclin A2 (Homo sapiens, UniProt P24941); assay: Inhibition of CDK2/CyclinA2 (unknown origin) by ADP-Glo assay; type: protein-complex assay
MV4-11 [11] = assay: Induction of apoptosis in human MV4-11 cells assessed as viable cells at 2 uM incubated for 24 hrs by AnnexinV-FITC/PI staining based flow cytometry (reference value: 93.4%); type: functional; settings: read-out: Activity
[12] = Cytotoxicity against human HEK293 cells assessed as reduction in cell viability measured after 72 hrs; type: toxicity, cell-based
MV4-11 [13] = assay: Induction of cell cycle arrest in human MV4-11 cells assessed as accumulation of cells at S phase at 0.2 uM incubated fo 36 hrs by propidium iodide staining based flow cytometry (reference value: 26.5%); type: functional
MV4-11 [14] = assay: Induction of apoptosis in human MV4-11 cells assessed as late apoptotic cells at 2 uM incubated for 24 hrs by AnnexinV-FITC/PI staining based flow cytometry (reference value: 5.21%); type: functional
[15] = molecular target: Cyclin-dependent kinase 9 (Homo sapiens) (UniProt P50750); assay: Inhibition of CDK9 in human MV4-11 cells assessed as reduction in c-Myc protein expression incubated for 12 hrs by western blot analysis; type: cell-based; settings: dose 0.1-4 µM
MV4-11 [16] = assay: Induction of cell cycle arrest in human MV4-11 cells assessed as accumulation of cells at S phase at 0.1 uM incubated fo 36 hrs by propidium iodide staining based flow cytometry (reference value: 26.5%); type: functional
MV4-11 [17] = assay: Induction of apoptosis in human MV4-11 cells assessed as late apoptotic cells at 0.5 uM incubated for 24 hrs by AnnexinV-FITC/PI staining based flow cytometry (reference value: 5.21%); type: functional
MV4-11 [18] = assay: Induction of apoptosis in human MV4-11 cells assessed as early apoptotic cells at 1 uM incubated for 24 hrs by AnnexinV-FITC/PI staining based flow cytometry (reference value: 1.42%); type: functional
MV4-11 [19] = assay: Induction of apoptosis in human MV4-11 cells assessed as early apoptotic cells at 4 uM incubated for 24 hrs by AnnexinV-FITC/PI staining based flow cytometry (reference value: 1.42%); type: functional
[20] = molecular target: Cyclin-dependent kinase 4/cyclin D1 (Homo sapiens, UniProt P11802); assay: Inhibition of CDK4/CyclinD1 (unknown origin) by ADP-Glo assay; type: protein-complex assay
MV4-11 [21] = assay: Induction of apoptosis in human MV4-11 cells assessed as increase in cleaved caspase 3 protein expression incubated for 24 hrs by western blot analysis; type: functional, cell-based; settings: dose 0.1-4 µM
MV4-11 [22] = assay: Induction of apoptosis in human MV4-11 cells assessed as viable cells at 0.1 uM incubated for 24 hrs by AnnexinV-FITC/PI staining based flow cytometry (reference value: 93.4%); type: functional; settings: read-out: Activity
[23] = Solubility of the compound in water at pH 7.4; type: physicochemical
MV4-11 [24] = assay: Induction of apoptosis in human MV4-11 cells assessed as early apoptotic cells at 0.1 uM incubated for 24 hrs by AnnexinV-FITC/PI staining based flow cytometry (reference value: 1.42%); type: functional
MV4-11 [25] = assay: Induction of apoptosis in human MV4-11 cells assessed as necrotic cells at 0.1 uM incubated for 24 hrs by AnnexinV-FITC/PI staining based flow cytometry (reference value: 0%); type: functional
MV4-11 [26] = assay: Induction of apoptosis in human MV4-11 cells assessed as late apoptotic cells at 0.1 uM incubated for 24 hrs by AnnexinV-FITC/PI staining based flow cytometry (reference value: 5.21%); type: functional
[27] = molecular target: Cyclin-dependent kinase 9 (Homo sapiens) (UniProt P50750); assay: Inhibition of CDK9 in human MV4-11 cells assessed as reduction in Mcl-1 protein expression incubated for 12 hrs by western blot analysis; type: cell-based; settings: dose 0.1-4 µM
[28] = molecular target: Dual specificity mitogen-activated protein kinase kinase 5 (Homo sapiens) (UniProt Q13163); assay: Inhibition of wild type partial length human MEK5 (98 to 448 residues) expressed in mammalian expression system at 1 uM by KINOMEscan analysis
[29] = molecular target: Cyclin-dependent kinase 4/cyclin D1 (Homo sapiens) (UniProt P11802+P24385); assay: Inhibition of wild type full length human CDK4 (1 to 303 residues)/CyclinD1 expressed in mammalian expression system at 1 uM by KINOMEscan analysis
MV4-11 [30] = assay: Induction of cell cycle arrest in human MV4-11 cells assessed as accumulation of cells at S phase at 0.4 uM incubated fo 36 hrs by propidium iodide staining based flow cytometry (reference value: 26.5%); type: functional

Chain of Cyclin-dependent kinase 9 (Homo sapiens) (P50750 whole entry, the tested form may be a part): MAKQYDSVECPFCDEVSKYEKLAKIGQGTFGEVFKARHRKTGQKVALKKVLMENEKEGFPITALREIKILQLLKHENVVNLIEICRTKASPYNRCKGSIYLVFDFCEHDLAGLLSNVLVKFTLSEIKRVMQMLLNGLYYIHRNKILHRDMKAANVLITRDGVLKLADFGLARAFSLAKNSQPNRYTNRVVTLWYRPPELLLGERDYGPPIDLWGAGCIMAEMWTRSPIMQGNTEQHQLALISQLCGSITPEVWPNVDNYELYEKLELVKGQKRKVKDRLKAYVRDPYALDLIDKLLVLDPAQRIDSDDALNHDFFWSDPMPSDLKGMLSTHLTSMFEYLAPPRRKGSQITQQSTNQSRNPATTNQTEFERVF
Chain of Calcium-dependent protein kinase 1 (Plasmodium falciparum) (P62344 2-524 limits assumed): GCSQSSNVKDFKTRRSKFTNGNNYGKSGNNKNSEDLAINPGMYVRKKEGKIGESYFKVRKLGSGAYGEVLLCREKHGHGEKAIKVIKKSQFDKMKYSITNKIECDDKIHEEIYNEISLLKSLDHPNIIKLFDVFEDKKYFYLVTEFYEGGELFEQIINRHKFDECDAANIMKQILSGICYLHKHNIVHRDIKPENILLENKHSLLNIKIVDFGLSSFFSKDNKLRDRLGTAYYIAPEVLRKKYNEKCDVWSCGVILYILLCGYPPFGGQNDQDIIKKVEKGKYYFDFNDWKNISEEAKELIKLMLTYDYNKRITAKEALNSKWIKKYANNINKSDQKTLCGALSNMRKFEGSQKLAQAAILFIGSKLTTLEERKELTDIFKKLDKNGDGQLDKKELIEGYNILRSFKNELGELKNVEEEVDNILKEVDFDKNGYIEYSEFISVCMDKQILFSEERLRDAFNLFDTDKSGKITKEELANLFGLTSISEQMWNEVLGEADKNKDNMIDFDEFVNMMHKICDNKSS
Chain of Dual specificity mitogen-activated protein kinase kinase 5 (Homo sapiens) (Q13163 whole entry, the tested form may be a part): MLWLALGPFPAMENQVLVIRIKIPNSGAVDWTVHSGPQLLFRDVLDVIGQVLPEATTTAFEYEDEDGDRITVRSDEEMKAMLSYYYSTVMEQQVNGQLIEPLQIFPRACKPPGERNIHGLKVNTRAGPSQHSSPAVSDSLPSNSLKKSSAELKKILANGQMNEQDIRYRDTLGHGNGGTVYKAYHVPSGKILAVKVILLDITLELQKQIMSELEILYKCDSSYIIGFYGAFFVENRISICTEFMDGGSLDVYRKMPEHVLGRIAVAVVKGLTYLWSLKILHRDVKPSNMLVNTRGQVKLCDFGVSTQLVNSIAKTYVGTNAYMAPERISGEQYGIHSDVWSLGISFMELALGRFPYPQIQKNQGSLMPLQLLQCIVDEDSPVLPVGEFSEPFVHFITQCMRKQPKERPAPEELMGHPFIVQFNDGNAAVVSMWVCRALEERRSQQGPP
Chain of CDK7/Cyclin H/MNAT1 (P51946 whole entry): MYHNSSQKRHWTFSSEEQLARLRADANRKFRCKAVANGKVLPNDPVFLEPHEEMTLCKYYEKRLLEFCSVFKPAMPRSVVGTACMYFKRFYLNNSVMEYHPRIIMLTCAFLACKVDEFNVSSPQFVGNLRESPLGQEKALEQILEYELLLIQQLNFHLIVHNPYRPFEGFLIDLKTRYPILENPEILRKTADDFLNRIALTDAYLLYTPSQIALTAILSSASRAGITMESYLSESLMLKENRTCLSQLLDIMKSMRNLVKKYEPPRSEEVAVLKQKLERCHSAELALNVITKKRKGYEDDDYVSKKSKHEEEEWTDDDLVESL
Chain of CDK7/Cyclin H/MNAT1 (P50613 whole entry): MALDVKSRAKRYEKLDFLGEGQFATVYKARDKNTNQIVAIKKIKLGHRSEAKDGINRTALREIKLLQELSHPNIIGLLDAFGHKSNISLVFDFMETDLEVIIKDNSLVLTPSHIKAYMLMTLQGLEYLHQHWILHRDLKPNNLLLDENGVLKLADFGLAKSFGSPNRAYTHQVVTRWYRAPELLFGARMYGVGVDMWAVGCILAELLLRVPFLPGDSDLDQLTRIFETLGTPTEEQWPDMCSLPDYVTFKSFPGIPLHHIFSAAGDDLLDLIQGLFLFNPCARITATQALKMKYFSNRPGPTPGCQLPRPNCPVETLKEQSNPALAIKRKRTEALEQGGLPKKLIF
Chain of CDK7/Cyclin H/MNAT1 (P51948 whole entry, further chain): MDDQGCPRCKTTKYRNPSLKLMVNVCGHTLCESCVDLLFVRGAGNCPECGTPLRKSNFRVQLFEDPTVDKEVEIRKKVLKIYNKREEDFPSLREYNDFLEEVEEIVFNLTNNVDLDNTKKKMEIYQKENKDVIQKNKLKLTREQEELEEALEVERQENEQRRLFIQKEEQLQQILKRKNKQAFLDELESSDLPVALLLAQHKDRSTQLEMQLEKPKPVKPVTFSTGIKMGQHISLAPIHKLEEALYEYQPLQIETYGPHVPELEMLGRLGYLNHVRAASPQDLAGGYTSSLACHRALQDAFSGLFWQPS
Chain of Cyclin-dependent kinase 4/cyclin D1 (P11802 whole entry): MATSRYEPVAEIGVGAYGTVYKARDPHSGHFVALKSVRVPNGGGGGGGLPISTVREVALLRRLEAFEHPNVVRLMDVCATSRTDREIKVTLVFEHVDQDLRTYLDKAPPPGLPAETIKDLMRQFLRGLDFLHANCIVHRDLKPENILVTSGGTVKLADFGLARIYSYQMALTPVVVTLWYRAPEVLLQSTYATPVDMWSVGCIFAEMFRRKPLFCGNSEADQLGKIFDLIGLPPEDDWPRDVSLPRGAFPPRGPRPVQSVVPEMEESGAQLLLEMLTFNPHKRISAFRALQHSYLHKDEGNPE
Chain of Cyclin-dependent kinase 4/cyclin D1 (P24385 whole entry, further chain): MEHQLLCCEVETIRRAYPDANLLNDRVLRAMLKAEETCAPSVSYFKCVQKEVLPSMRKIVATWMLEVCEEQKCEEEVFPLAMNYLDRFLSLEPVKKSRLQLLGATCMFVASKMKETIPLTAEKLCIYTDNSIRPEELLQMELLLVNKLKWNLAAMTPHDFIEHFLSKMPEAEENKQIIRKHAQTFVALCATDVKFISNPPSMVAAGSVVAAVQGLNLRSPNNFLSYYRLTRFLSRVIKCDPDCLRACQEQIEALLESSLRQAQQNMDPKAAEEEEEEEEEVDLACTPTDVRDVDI
Chain of CDK6/cyclin D1 (P24385 whole entry): as the sequence (P24385 whole entry, further chain) above
Chain of CDK6/cyclin D1 (Q00534 whole entry): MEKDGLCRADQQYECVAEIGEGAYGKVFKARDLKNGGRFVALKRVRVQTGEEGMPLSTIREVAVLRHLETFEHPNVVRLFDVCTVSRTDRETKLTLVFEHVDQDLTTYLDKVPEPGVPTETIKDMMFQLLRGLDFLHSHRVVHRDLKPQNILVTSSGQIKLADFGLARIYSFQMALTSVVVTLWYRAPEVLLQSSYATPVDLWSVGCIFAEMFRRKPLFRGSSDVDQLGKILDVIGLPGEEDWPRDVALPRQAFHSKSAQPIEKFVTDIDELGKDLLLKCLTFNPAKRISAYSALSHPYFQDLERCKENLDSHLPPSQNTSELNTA
Chain of Rho-associated protein kinase 2 (Homo sapiens) (O75116 whole entry, looked up, the tested form may be a part): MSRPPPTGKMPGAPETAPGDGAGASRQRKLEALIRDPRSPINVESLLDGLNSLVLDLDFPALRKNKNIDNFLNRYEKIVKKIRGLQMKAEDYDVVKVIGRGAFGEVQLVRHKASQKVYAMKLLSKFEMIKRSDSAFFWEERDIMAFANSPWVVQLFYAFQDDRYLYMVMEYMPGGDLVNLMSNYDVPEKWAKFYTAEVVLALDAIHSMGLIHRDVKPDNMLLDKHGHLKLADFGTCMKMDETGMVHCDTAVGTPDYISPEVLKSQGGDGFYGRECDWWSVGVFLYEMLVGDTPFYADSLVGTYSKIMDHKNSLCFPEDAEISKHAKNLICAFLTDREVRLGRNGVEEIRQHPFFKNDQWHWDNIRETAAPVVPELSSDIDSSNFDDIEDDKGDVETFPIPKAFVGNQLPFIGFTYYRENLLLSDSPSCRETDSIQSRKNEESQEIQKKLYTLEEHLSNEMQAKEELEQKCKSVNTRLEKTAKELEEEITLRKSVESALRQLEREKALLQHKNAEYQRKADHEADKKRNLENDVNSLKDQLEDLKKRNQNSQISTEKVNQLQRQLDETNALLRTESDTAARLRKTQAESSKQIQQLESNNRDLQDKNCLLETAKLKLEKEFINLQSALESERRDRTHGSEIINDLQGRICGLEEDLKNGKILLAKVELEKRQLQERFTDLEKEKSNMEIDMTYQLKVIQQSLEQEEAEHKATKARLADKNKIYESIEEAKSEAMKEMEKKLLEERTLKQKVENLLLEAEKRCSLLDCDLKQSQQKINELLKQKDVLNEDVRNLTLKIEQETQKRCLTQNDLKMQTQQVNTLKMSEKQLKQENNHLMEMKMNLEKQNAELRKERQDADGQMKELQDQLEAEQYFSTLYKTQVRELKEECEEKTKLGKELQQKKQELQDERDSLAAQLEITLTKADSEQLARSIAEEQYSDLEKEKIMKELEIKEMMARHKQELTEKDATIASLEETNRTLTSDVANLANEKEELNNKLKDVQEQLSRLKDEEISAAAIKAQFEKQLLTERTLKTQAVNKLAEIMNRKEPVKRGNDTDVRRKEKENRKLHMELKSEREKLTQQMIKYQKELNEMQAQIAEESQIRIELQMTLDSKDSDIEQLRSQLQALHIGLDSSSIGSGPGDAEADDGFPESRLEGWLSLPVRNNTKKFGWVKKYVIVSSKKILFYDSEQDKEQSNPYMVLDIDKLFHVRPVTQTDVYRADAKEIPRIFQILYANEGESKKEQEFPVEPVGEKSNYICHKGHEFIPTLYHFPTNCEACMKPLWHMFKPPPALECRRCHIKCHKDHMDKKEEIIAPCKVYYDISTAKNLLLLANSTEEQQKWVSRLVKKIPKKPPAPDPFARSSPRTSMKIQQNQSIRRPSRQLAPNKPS

With COc1cc(O)c2c(=O)cc(-c3ccc(N4CCN(C)CC4)cc3)oc2c1C1=CCN(C)CC1 the IC50 (CDK7/Cyclin H/MNAT1) was 0.536 µM, the inhibition [1] was “Active” and the inhibition [2] was 0%. The inhibition [3] was 16.7%, the inhibition [4] was “Active” and the Activity (MV4-11 [5]) was 0.11%. The IC50 (CDK6/cyclin D1) was 0.589 µM, the Activity (MV4-11 [6]) was 70.5% and the Activity (MV4-11 [7]) was 81.2%. The Activity (MV4-11 [8]) was 0.01%, the inhibition [9] was 6% and the inhibition [10] was 2.2%. It also gave an IC50 (MCF7) of 0.14 µM, an IC50 (CDK2/Cyclin A2) of 0.533 µM and a viability at 2 µM (MV4-11 [11]) of 3.12%. For the same compound, the IC50 at 72 h [12] was 10.7 µM, the Activity (MV4-11 [13]) was 19% and the Activity (MV4-11 [14]) was 29.8%. For the same compound, the inhibition [15] was “Dose-Dependent Effect”, the Activity (MV4-11 [16]) was 21% and the Activity (MV4-11 [17]) was 10.2%. It also gave an Activity (MV4-11 [18]) of 9.95%, an Activity (MV4-11 [19]) of 70.3% and an IC50 [20] of 0.053 µM. The Activity (MV4-11 [21]) was “Dose-Dependent Effect”, the viability at 0.1 µM (MV4-11 [22]) was 91.5% and the solubility [23] was 0.12 mg/mL (≈ 260 µM). For the same compound, the Activity (MV4-11 [24]) was 1.46%, the Activity (MV4-11 [25]) was 0.02% and the Activity (MV4-11 [26]) was 6.98%. For the same compound, the inhibition [27] was “Dose-Dependent Effect”, the inhibition [28] was 0% and the inhibition [29] was 5.3%. It also gave an Activity (MV4-11 [30]) of 12.8%.

From ChEMBL document CHEMBL5634084, “Design and optimization of selective and potent CDK9 inhibitors with flavonoid scaffold for the treatment of acute myeloid leukemia” (Eur J Med Chem, 2023)
